“Also recorded” adds a separate entry of the source.
What was measured:
Solubility remark = type: physicochemical
psoriasis = conditions: literature or prior use; cited from earlier work
[1] = Stability under light irradiation; type: physicochemical; conditions: for decomposition under light: 30 minutes, 400 W high-pressure mercury vapor lamp, in toluene or xylene
Description: Compound C and dithranol (A) in solution (toluene or xylene) were exposed for 30 minutes to a 400 W high-pressure mercury vapor lamp (Type HPM 12, Phillips), where the spectrum of light emission was changed by adding heavy metal salts.

skin [2] = experiment: Skin compatibility under occlusion, method of Mustakallio; type: in vivo; conditions: for concentrations producing discoloration and skin irritations: white vaseline; for skin irritations or discolorations: 4 to 128 mmols in white vaseline, after 4 and after 16 hours of occlusion
Description: In a further test, according to the method of Mustakallio, compound A was applied at concentrations of 1, 2, 4, 8, 16, 32 mmols in white vaseline and allowed to remain on the skin for 4 hours under occlusion. Compounds C and K, however, were applied at concentrations of 4, 8, 16, 32, 64, 128 mmols, also in white vaseline, and allowed to remain on the skin for 16 hours under occlusion. […] This means that the novel compounds are more compatible by a factor of at least 64.

guinea pigs = experiment: Sensitizing activity on guinea pigs; type: in vivo, guinea pig (Perbright White strain); conditions: for sensitization: 1:10 to 1:50 of the original concentrations, behind the ears
Description: The sensitizing activity was tested 2 weeks after the skin compatibility test with 1:10 to 1:50 of the originally used concentrations behind the ears.

[3] = prior use; cited from earlier work
skin [4] = conditions: literature or prior use; listed as dithranol; cited from earlier work
mouse = experiment: Acute toxicity in the mouse; type: in vivo
Description: (§1) The acute toxicity was determined in the mouse and in the rat. Determined was the LD50, i.e. the dose after administration of which 50% of the animals died within 14 days, or it was determined how many of the 10 treated animals died within the period of observation.

[5] = Acute toxicity in the mouse; type: in vivo; conditions: in vivo, within 14 days
Description: as §1

skin of guinea pigs = experiment: Skin compatibility test on guinea pigs; type: in vivo, guinea pig (Perbright White strain); conditions: for Sum of the reactions divided by the number of animals: score 0 no irritation to 3 very strong erythema; for skin compatibility compared with compound A: Table 3
Description: Guinea pigs of the Perbright White strain, with a body weight of about 350 gm, were fed with standard guinea pig feed (Altromin 3022) and water ad lib.
During the test, the animals were kept in single cages. The test substances, which were dissolved in a well compatible solvent, were applied to the skin of the animals (diameter of the test area 3.5 cm) daily for 3 weeks, from Monday to Friday. The animals were shaved each Monday, Wednesday and Friday in the early morning, the treatment with the test substances was performed in the early afternoon. Immediately before administration of the substance, the skin reaction was tested. The evaluation was carried out visually, and erythema, edema, and mycosis of the skin were considered.
The following evaluation was made:
2: strong erythema with beginning edema
3: very strong erythema with edema or beginning necrosis.
The numerical sum of the reactions was used for the total evaluation of a group of animals.

[6] = Penetration and metabolization in the skin in vitro; type: in vitro ADME, pig; conditions: thin-layer chromatography; for penetration into the layers of the skin: same carriers
[7] = tested on: skin (forearms of volunteer human test subjects); experiment: Orienting skin compatibility in humans (ointments on forearm); type: in vivo; conditions: for discoloration of the skin / skin irritation: 0.44% ointment, 16 hours, doubled to 0.88% after 3 days if no reaction
Description: Ointments, each containing individually 0.44% of compounds […] and K were applied to the forearms of volunteer human test subjects, covered with bandage gauze and allowed to remain on the skin for 16 hours. After 16 hours the ointments were washed off with soap solution, and the skin irritation and discoloration, if any, were evaluated visually and photographed. Then, the test ointments were again administered and allowed to remain on the skin until the next day. Again, the reactions were evaluated and a new treatment was started.

rat = experiment: Acute toxicity in the rat; type: in vivo
Description: as §1

[8] = Acute toxicity in the rat; type: in vivo; conditions: in vivo, ip, within 14 days
Description: as §1

[9] = Natural color of the substance (UV-absorption, FIG. 1); type: physicochemical; conditions: shortwave portion of visible light, beginning at 380 nm
Excerpt: Topically administrable substances which are colored are undesirable for cosmetic reasons and also because the lingerie may become soiled. […] This is also expressed by the optic impression of the preparations. […] This is a further advantage compared with dithranol.

guinea pig = experiment: Photo-sensitization in vivo on the guinea pig; conditions: 0.01% alcoholic solution, 3 weeks, 125 W mercury high-pressure lamp 10 minutes
Description: Since some halogenated aromatic substances have a photo-sensitizing activity, the photo-sensitization of compound C was also tested in vivo on the guinea pig.
Guinea pigs were treated for 3 weeks on 5 week-days with a 0.01% alcoholic solution of compound C. After 30 minutes each animal was exposed for 10 minutes to a 125 W mercury high-pressure lamp (ultra violet sun lamp). The irradiation was carried out in such a way that no UV-B erythema appeared.

[10] = target: glucose-6-phosphate-dihydrogenase; experiment: Inhibition of glucose-6-phosphate-dihydrogenase after 120 minutes incubation; type: biochemical; conditions: 37° C., pH 7.6, REED and MUENCH
Description: The inhibiting effect upon enzymes was determined by measurement of the inhibition of glucose-6-phosphate-dihydrogenase.
The following equilibrium was observed: [drawing 5] (NADP-nicotinamide-adenine-dinucleotide-phosphate). The rate of formation of NADPH is a measure of the enzyme activity; it can be measured by means of the increase in extinction at […] per unit of time.
0.025 ml of glucose-6-phosphate-dihydrogenase were diluted to 10 ml with distilled water (Solution I). 100 mg of nicotinamide-adenine-dinucleotide-phosphate were dissolved in 13 ml of distilled water (Solution II). 47.2 mg of glucose-6-phosphate were dissolved in another 10 ml of distilled water (Solution III). Besides this, a buffer solution (Solution IV) was prepared as follows:
0.28 gm of triethanolamine hydrochloride and 1.461 gm of ethylene-diamine tetraacetic acid disodium salt were dissolved in 1 liter of distilled water, and the solution was adjusted to pH 7.6 with sodium hydroxide. The substance to be tested was dissolved in dimethyl formamide or ethanol (Solution V). Tested end-concentrations: 25, 12.5, 6.25, 3.125, 1.56 and 0.78 μg/ml.
A mixture of 0.1 ml of Solution I, 0.1 ml of Solution II, 2.67 ml of Solution IV and 0.03 ml of Solution V was kept at 37° C. for 120 minutes. After addition of 0.1 ml of Solution III and thorough mixing, the change in extinction was measured photometrically at 366 nm over 3 minutes. The inhibition values were calculated from the average values of 3 measurements (as change of extinction per minute), compared to controls to which the pure solvent was added as inhibitor solution. The ED50 was calculated according to the method of REED and MUENCH from the inhibiting values of the different concentrations. The following table contains the values thus determined: […]

SMILES	decomposition under light [1]	Number of dead animals (mouse; p.o., 2000 mg/kg)	LD50 at 336 h ([5]; ip)	Sum of the reactions divided by the number of animals (skin of guinea pigs; 0.015%, end of 1st week)	Sum of the reactions divided by the number of animals (skin of guinea pigs; 0.015%, end of 2nd week)	Sum of the reactions divided by the number of animals (skin of guinea pigs; 0.015%, end of 3rd week)	Sum of the reactions divided by the number of animals (skin of guinea pigs; 0.03%, end of 1st week)	Sum of the reactions divided by the number of animals (skin of guinea pigs; 0.03%, end of 2nd week)	Sum of the reactions divided by the number of animals (skin of guinea pigs; 0.03%, end of 3rd week)	penetration into the layers of the skin [6]	metabolization in the skin [6]	discoloration of the skin [7]	skin irritation [7]	Number of dead animals (rat; p.o., 2000 mg/kg)	LD50 at 336 h [8]	UV-absorption / yellow color [9]	skin irritations or discolorations (skin [2])	sensitization (guinea pigs)	ED50, inhibition of incubation after 120 minutes [10]	skin compatibility compared with compound A (skin of guinea pigs)	also measured
CC(C)(C)c1cc(Br)c(O)c2c1Cc1c(Br)cc(Br)c(O)c1C2=O																					solubility (Solubility remark): inadequate solubility
O=C1c2c(O)cccc2Cc2cccc(O)c21 [Compound A, 1,8-Dihydroxy-9-(10H)anthracenone]	nearly completely decomposed	2/10	2.42 mg/kg	0.66	0.33	0.33	1.3	2.16	2.25	penetrate to an approximately equal extent	metabolized in a similar manner	brownish-violet discoloration after only the second application	strong skin irritation with erythema	1/10	5.19 mg/kg						antipsoriatic activity (psoriasis): reliable activity; concentrations producing discoloration and skin irritations (skin [2]; 4 hours of occlusion): ≥ 2 mmols; concentrations producing discoloration and skin irritations (skin [2]; 16 hours of occlusion): ≥ 1 mmols; sensitized animals (guinea pigs; 0.03%, tested 2 weeks after skin compatibility test): 3 out of 12; systemic side-effects [3]: lack of systemic side-effects; skin irritation and/or discoloration (skin [4]): strong, irreversible discoloration of skin and lingerie; also recorded: strong skin-irritating activity; LD50 at 336 h ([5]; sc.): 2.22 mg/kg; later changes of the treated skin area ([7]; ointment test): peeled after about one week; Number of dead animals (rat; sc., 1000 mg/kg): 2/10
O=C1c2c(O)ccc(Cl)c2Cc2c(Cl)ccc(O)c21 [Compound C, 4,5-Dichloro-1,8-dihydroxy-9-(10H)anthracenone]	no decomposition could be determined	0/10					0	0	0.04	penetrate to an approximately equal extent	metabolized in a similar manner	no skin irritation or discoloration of the skin	no skin irritation	0/10		significantly less UV-absorption	no skin irritations or discolorations could be observed	no sensitization	4.63 µg/mL	considerably more skin-compatible than compound A	photo-sensitizing activity (guinea pig): No photo-sensitizing activity could be determined; chlorination of toluene (radical formation) ([1]; gas-chromatographic, sensitivity 0.0001%): no chlorination of toluene could be found; Number of dead animals (mouse; i.p., 2000 mg/kg): 1/10; Number of dead animals (mouse; sc., 2000 mg/kg): 6/10; Sum of the reactions divided by the number of animals (skin of guinea pigs; 0.045%, end of 1st week): 0.166; Sum of the reactions divided by the number of animals (skin of guinea pigs; 0.045%, end of 2nd week): 0.66; Sum of the reactions divided by the number of animals (skin of guinea pigs; 0.045%, end of 3rd week): 0.41; Number of dead animals (rat; i.p., 2000 mg/kg): 0/10; Number of dead animals (rat; sc., 2000 mg/kg): 0/10
CC(C)c1ccc(O)c2c1Cc1cccc(O)c1C2=O [Compound F, 1,8-Dihydroxy-4-isopropyl-9-(10H)anthracenone]		0/10	52 mg/kg	0.085	0.085	0.085						no skin irritation or discoloration of the skin	no skin irritation	0/10	45 mg/kg			no sensitization	5.35 µg/mL	considerably more skin-compatible than compound A	Number of dead animals (mouse; sc., 2000 mg/kg): 0/10; Sum of the reactions divided by the number of animals (skin of guinea pigs; 0.045%, end of 1st week): 0.085; Sum of the reactions divided by the number of animals (skin of guinea pigs; 0.045%, end of 2nd week): 0.085; Sum of the reactions divided by the number of animals (skin of guinea pigs; 0.045%, end of 3rd week): 0.085; Number of dead animals (rat; sc., 2000 mg/kg): 0/10
CC(C)(C)c1ccc2c(c1O)C(=O)c1c(ccc(C(C)(C)C)c1O)C2 [Compound K, 2,7-Di-tert. butyl-1,8-dihydroxy-9-(10H)anthracenone]							0.00	0.042	0.00	penetrate to an approximately equal extent	metabolized in a similar manner					significantly less UV-absorption	no skin irritations or discolorations could be observed	no sensitization	7.77 µg/mL	considerably more skin-compatible than compound A	Number of dead animals (mouse; i.p., 1000 mg/kg): 0/10; Number of dead animals (mouse; p.o., 4000 mg/kg): 0/10; Number of dead animals (mouse; sc., 1000 mg/kg): 0/10
